Data published in ChEMBL document CHEMBL1201862, “PubChem BioAssay data set” (2004).
Calls of active or inactive are those of the source.

How the values were obtained:
[1] = target: Disintegrin and metalloproteinase domain-containing protein 17 (Homo sapiens, UniProt P78536); experiment: inhibition of ADAM17 substrate cleavage – biochemical, quenched FRET substrate, counter-screen for ADAM10 exosite inhibitor project, dose response (AID 743253)
[2] = HGIII-sPLA2 enzyme inhibition potency – biochemical, QFRET, IC50, dose response (AID 743457);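 further: green fluorescence rise as the enzyme cleaves BODIPY PC-A2 in liposomes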
Paired box protein Pax-8 = Paired box protein Pax-8 (Homo sapiens, UniProt Q06710); experiment: PAX8 transcriptional activity inhibition in RMG-I – RMG-I cells, luciferase, cherry-pick, dose response (AID 687027); format: functional, cell-based;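 further: luciferase reporter driven by Pax8 target thyroperoxidase promoter measured by SteadyGlo luminescence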
[3] = OVCAR8 cell viability loss – plate reader, dry powder samples, PAX8 project, dose response (AID 743197); format: functional, cell-based; conditions: OVCAR-8
[4] = A2780 cell killing – plate reader, dry powder samples, cytotoxicity control, dose response (AID 743046); format: functional, cell-based
[5] = OVCAR-3 cell viability loss – plate reader, dry powder samples, PAX8 inhibitor project, dose response (AID 743044); format: functional, cell-based
[6] = IGROV1 cell killing – plate reader, dry powder samples, PAX8 inhibitor project, dose response (AID 743043); format: functional, cell-based; conditions: IGROV-1
Protein RecA = target: T1, Protein RecA (Mycobacterium tuberculosis, UniProt P9WHJ3); experiment: Fluorescence Cell-Free Homogeneous Dose Retest to Identify Inhibitors of RecA-Intein Splicing Activity. [Related pubchem assays (depositor defined):AID2097, AID2223, AID489010, AID492950]; format: functional
T1 sequence (P9WHJ3 whole entry): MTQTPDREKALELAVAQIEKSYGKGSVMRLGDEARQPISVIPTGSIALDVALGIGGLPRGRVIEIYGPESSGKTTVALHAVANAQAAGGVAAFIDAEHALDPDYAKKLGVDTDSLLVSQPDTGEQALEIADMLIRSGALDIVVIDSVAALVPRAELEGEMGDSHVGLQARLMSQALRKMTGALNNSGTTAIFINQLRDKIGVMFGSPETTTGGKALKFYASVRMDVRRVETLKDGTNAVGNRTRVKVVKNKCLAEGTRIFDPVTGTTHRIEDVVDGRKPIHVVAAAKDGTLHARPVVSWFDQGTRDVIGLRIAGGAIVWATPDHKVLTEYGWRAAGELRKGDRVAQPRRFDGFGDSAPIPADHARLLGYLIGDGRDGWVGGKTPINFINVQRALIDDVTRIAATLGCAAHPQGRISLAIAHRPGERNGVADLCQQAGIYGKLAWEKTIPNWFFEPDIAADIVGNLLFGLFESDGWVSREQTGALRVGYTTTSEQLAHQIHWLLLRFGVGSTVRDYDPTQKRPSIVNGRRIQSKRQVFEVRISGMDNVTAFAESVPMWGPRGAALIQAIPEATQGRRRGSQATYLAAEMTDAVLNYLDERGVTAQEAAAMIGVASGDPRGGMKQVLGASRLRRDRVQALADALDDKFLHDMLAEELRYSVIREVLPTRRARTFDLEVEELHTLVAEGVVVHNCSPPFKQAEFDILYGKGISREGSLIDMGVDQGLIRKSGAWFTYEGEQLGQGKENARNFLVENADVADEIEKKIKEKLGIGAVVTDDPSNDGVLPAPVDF

[7] = target: T2, Long-chain-fatty-acid--AMP ligase FadD28 (Mycobacterium tuberculosis, UniProt P9WQ59); experiment: Fluorescence polarization aasay to screen for inhibitors that compete for the binding of FadD28 to a bisubstrate Measured in Biochemical System Using Plate Reader - 2147-01_Inhibitor_Dose_CherryPick_Activity.; format: functional, Mycobacterium tuberculosis H37Rv
T2 sequence (P9WQ59 whole entry): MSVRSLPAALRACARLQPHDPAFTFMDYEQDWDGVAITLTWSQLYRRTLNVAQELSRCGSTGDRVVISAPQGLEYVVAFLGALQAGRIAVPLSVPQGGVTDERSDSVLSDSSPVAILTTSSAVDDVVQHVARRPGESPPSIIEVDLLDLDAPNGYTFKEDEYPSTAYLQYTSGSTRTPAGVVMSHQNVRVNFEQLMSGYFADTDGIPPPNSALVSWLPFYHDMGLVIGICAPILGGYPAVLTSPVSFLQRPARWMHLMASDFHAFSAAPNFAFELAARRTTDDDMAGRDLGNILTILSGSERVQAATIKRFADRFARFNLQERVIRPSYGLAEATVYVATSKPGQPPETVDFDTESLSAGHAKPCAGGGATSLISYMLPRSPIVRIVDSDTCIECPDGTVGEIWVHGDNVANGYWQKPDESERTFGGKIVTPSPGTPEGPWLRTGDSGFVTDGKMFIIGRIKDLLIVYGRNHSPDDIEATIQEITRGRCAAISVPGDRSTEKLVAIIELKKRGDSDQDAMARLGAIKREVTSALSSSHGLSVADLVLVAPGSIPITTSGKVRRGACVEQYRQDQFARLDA

Streptococcus = experiment: GAS UMAA2166 growth inhibition – luminescence, BacTiterGlo, counter-screen for streptokinase expression inhibitor project, dose response (AID 1915); format: functional, organism-based;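 further: potency for reduction of bacterial viability or growth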
Streptokinase A = target: T3, Streptokinase A (Streptococcus pyogenes serotype M1, UniProt P10520); experiment: viability-normalized secreted streptokinase activity reduction – plasminogen activation absorbance, OD405, dose response (AID 1914); format: functional, Streptococcus pyogenes M1 GAS;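 further: secreted streptokinase activity via plasminogen activation per viability signal from cell pellet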
T3 sequence (P10520 whole entry): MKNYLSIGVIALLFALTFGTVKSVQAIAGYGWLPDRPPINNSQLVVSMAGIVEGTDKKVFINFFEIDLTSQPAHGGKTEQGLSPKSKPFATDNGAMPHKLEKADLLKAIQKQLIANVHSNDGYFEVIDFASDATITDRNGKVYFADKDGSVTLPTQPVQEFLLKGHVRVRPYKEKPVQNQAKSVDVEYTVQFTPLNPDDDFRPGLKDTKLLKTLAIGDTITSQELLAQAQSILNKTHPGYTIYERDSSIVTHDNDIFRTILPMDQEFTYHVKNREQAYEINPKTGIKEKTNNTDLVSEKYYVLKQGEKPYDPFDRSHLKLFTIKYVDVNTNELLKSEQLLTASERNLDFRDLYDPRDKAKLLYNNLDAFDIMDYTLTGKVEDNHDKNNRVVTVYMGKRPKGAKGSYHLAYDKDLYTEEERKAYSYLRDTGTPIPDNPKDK

[8] = tested on: Streptococcus sp. 'group A'; experiment: Streptococcus pyogenes SK(-)GAS viability under kanamycin – luminescence, BacTiterGlo, confirmation, counter-screen for streptokinase expression inhibitor project, dose response (AID 1900); format: functional, organism-based
[9] = target: T4, Replicative DNA helicase DnaB (Mycobacterium tuberculosis, UniProt P9WMR3); experiment: DnaB intein splicing inhibitors, dose response, biochemical, cell-free fluorescence (AID 449749); format: functional
T4 sequence (P9WMR3 whole entry): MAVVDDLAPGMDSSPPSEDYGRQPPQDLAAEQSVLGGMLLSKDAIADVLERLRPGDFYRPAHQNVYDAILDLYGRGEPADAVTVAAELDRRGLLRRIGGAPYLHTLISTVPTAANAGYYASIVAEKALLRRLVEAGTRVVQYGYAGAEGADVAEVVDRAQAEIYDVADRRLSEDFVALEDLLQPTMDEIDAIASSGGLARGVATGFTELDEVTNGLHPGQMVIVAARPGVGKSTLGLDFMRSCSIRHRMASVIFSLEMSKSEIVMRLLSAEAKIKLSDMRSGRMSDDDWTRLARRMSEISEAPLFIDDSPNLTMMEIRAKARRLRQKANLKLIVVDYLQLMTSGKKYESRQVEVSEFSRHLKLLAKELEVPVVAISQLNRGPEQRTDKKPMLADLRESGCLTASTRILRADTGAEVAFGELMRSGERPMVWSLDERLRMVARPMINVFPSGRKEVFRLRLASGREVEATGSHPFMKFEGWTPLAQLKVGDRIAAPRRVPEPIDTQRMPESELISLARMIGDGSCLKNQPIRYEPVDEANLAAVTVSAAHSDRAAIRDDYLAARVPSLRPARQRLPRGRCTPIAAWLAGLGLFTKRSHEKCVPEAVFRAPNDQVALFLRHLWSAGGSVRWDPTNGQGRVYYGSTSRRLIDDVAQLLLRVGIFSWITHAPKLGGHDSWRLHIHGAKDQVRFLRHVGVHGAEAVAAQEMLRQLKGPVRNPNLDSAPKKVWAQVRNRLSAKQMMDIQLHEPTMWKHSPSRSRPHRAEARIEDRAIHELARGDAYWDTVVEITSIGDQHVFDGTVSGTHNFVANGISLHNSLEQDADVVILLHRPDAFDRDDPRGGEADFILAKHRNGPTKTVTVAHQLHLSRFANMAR

[10] = target: T5, DNA repair protein RAD52 homolog (Homo sapiens, UniProt P43351); format: functional, biochemical
T5 sequence (P43351 whole entry): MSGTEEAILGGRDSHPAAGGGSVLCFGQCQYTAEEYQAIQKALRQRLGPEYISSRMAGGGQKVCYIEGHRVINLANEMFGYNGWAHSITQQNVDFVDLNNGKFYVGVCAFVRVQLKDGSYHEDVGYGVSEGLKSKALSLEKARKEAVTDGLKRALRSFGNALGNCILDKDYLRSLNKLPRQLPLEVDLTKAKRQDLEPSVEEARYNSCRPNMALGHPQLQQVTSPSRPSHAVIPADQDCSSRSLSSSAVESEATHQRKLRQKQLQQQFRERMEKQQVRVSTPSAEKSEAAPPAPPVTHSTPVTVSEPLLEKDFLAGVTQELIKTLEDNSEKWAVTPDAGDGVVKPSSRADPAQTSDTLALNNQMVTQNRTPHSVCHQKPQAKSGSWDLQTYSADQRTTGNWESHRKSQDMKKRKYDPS

Cytochrome P450 2C19 = Cytochrome P450 2C19 (Homo sapiens, UniProt P33261); experiment: Cytochrome panel assay with activity outcomes. Panel member name: p450-cyp2c19 Compounds with AC50 equal or less than 10 uM are considered active; format: functional; conditions: read-out: AC50
[11] = target: T6, Endoribonuclease toxin MazF (Escherichia coli K-12, UniProt P0AE70); experiment: substrate-only fluorescence increase artefacts – biochemical, single-stranded RNase substrate, counter-screen for MazEF activator project, dose response (AID 588502); format: functional
T6 sequence (P0AE70 whole entry): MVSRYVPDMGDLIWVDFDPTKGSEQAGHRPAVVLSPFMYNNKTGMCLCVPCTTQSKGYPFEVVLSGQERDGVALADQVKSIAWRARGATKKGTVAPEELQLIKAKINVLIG

[12] = target: T6, Endoribonuclease toxin MazF; experiment: activation of MazEF endoribonuclease cleavage – biochemical, fluorescence, single-stranded RNA substrate, uHTS hits, dose response (AID 588481); format: functional
[13] = potency of ADAM10 substrate cleavage blockers – biochemical, QFRET, dose response (AID 743254);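 further: ADAM10 enzyme with the DM2 quenched FRET peptide as substrate; EDANS fluorescence gain as the protease cuts the substrate; inhibitor potency against ADAM10 proteolytic activity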

Paired box protein Pax-8, sequence (Q06710 whole entry): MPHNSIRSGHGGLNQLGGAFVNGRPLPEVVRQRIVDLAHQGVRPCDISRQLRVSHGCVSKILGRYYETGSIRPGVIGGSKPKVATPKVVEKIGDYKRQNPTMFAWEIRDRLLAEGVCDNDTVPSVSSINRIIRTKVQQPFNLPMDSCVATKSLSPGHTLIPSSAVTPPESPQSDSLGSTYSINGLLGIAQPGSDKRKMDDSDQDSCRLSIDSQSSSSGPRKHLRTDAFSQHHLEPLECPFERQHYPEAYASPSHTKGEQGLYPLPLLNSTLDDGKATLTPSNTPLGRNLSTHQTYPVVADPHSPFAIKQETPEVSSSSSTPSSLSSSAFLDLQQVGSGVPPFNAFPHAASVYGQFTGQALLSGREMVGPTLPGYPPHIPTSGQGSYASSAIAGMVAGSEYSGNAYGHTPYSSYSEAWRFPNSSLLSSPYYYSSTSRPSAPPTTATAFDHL
Cytochrome P450 2C19, sequence (P33261 whole entry): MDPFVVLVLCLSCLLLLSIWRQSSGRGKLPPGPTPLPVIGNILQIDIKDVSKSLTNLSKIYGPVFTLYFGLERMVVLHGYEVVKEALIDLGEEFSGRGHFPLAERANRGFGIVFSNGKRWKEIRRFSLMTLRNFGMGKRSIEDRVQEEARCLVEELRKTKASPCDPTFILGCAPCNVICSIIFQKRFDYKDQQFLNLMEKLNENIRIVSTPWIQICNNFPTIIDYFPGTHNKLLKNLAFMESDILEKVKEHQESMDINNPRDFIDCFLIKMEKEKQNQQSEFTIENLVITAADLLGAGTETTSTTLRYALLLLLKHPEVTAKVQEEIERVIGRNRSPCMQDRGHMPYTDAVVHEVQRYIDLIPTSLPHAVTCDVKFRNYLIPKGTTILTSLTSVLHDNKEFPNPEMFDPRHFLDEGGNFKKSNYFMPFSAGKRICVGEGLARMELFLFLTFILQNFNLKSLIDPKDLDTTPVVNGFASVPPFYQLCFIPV
Disintegrin and metalloproteinase domain-containing protein 17, sequence (P78536 whole entry, the tested form may be a part): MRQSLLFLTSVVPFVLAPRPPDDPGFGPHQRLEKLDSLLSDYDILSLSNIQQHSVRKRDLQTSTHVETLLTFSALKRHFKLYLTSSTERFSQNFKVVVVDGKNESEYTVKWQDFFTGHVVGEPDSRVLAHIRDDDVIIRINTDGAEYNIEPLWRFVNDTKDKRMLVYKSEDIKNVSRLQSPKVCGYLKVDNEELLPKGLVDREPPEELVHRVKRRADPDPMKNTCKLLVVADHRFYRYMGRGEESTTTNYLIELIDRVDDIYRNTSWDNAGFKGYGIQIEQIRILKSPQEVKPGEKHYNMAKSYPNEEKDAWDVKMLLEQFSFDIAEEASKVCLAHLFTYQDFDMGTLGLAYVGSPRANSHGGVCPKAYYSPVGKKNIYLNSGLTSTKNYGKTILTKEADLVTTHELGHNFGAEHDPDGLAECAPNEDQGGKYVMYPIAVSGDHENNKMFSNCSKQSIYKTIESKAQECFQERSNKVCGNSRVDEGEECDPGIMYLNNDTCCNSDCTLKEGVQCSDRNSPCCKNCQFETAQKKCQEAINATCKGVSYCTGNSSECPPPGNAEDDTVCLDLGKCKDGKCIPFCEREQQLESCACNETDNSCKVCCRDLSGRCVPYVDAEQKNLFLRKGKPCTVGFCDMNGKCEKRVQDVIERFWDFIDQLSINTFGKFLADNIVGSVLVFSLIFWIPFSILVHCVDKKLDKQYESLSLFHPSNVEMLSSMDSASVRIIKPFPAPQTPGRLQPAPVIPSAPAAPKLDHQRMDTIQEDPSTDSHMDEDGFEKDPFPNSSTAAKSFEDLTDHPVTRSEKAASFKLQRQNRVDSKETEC

Compound: CC(C)C[C@H](NC(=O)c1nc[nH]c1C(=O)NC(c1ccccc1)c1ccccc1)C(=O)OCc1ccccc1
- IC50 [1]: > 69.5 µM (inactive)

Compound: Cc1ccccc1OCC(=O)NNC(=S)NC(=O)c1ccccc1[N+](=O)[O-]
- IC50 [2]: 64.9 µM (inactive)

Compound: C[C@@H]1CCCCO[C@@H](CN(C)C(=O)NC2CCCCC2)[C@H](C)CN([C@@H](C)CO)C(=O)c2cc(NC(=O)Nc3ccc(C(F)(F)F)cc3)ccc2O1
- AC50 (Paired box protein Pax-8): 3.5 µM (active)
- AC50 [3]: 47.1 µM (active)
- AC50 [4]: 5.99 µM (active)
- AC50 [5]: 38 µM (active)

Compound: O=C(NN=C(S)NC1CCCCC1)c1ccccc1O
- IC50 [2]: > 122 µM (inactive)

Compound: C[C@H]1CN([C@@H](C)CO)C(=O)c2cc(NS(=O)(=O)c3ccccc3)ccc2O[C@@H]1CN(C)Cc1ccc(Oc2ccccc2)cc1
- AC50 (Paired box protein Pax-8): 15.7 µM (active)
- AC50 [4]: 8.52 µM (active)

Compound: C[C@@H]1CCCCO[C@H](CN(C)Cc2ccc(C(F)(F)F)cc2)[C@H](C)CN([C@H](C)CO)C(=O)c2cc(NC(=O)Cc3ccccc3)ccc2O1
- AC50 (Paired box protein Pax-8): 6.16 µM (active)
- AC50 [3]: 34.7 µM (active)
- AC50 [5]: 26.8 µM (active)
- AC50 [6]: 43.9 µM (active)

Compound: CC1=NN(c2nc(-c3ccccc3)cs2)C(=O)C1
- EC50 (Protein RecA): 6.75 µM (active)
- AC50 [7]: > 100 µM (inactive)
- EC50 (Streptococcus): > 150 µM (not active)
- EC50 (Streptokinase A): 10 µM (active)
- EC50 [8]: 16.9 µM (active)
- AC50 [9]: 7.99 µM (active)

Compound: CN(C)CCCn1c2c3ccccc3ccc2c2oc(=O)c3ccccc3c21
- AC50 [10]: < 0.681 µM (active)
- AC50 (Cytochrome P450 2C19): 0.794 µM (inconclusive)
- EC50 [11]: > 99 µM (inactive)
- EC50 [12]: > 99 µM (inactive)

Compound: CC(C)C[C@H](NC(=O)c1[nH]cnc1C(=O)NC(c1ccccc1)c1ccccc1)C(=O)OCc1ccccc1
- IC50 [13]: 19.4 µM (inactive)
